The values that follow come from patent US20070010671A1, “Novel quinazoline derivatives and methods of treatment related to the use thereof” (priority 2003, published 2007).

Bounds are passed on as bounds.

The target of one test is MCH receptor (Homo sapiens, UniProt Q99705). Briefly: High throughput functional screening FLIPR/FDSS6000: inhibition of MCH-evoked intracellular Ca2+ changes. Format: cell-based. As to conditions: class by percent of control at 10^-7 M or IC50. The essentials: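 Constitutively active non-endogenous MCH-R cells; Fluo4-AM 4 μM, 2.5 mM probenecid, 1 hr, 37° C; cpd 3 min, 37° C; MCH 50 nM (antagonist mode); kinetic Ca2+ read Ex488/Em530, 290 s.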
On to `CCc1cccc(C)c1NC(=O)NC[C@H]1CC[C@@H](Nc2nc(N(C)C)c3ccccc3n2)CC1` [compound 434, N-[(cis-4-{[4-(dimethylamino)quinazolin-2-yl]amino}cyclohexyl)methyl]-N′-(2-ethyl-6-methylphenyl)urea], for which the class is recorded as 1 (Class 1: The value of percent of control at 10^−7 M was less than 40% or the value of IC50 was less than 50 nM.). The same measure, in the same setting: with `CN(C)c1nc(N[C@H]2CC[C@@H](NC(=S)Nc3ccc(/N=N/c4ccccc4)cc3)CC2)nc2ccccc12` [compound 394] the figure was 3 (Class 3: The value of percent of control at 10^−7 M was more than 60% or the value of IC50 was more than 200 nM.). On the same count and under the same terms, with `CN(C)c1nc(N[C@H]2CC[C@@H](NC(=S)Nc3cc(Cl)ccc3F)CC2)nc2ccccc12` [compound 376] the figure was 3 (Class 3: The value of percent of control at 10^−7 M was more than 60% or the value of IC50 was more than 200 nM.). Still for that read-out and setting: in the case of `CN(C)c1nc(N[C@H]2CC[C@@H](CNC(=O)NCCc3ccccc3)CC2)nc2ccccc12` [compound 571] it was 3 (Class 3: The value of percent of control at 10^−7 M was more than 60% or the value of IC50 was more than 200 nM.); in that of `Cc1ccc(NC(=S)N[C@H]2CC[C@@H](Nc3nc(N(C)C)c4ccccc4n3)CC2)c([N+](=O)[O-])c1` [compound 279], 3 (Class 3: The value of percent of control at 10^−7 M was more than 60% or the value of IC50 was more than 200 nM.). For the compound `CN(C)c1nc(N[C@H]2CC[C@@H](CNC(=S)Nc3ccc(Oc4ccccc4)cc3)CC2)nc2ccccc12` [compound 745], the class is reported as 3 (Class 3: The value of percent of control at 10^−7 M was more than 60% or the value of IC50 was more than 200 nM.). Same read-out and setting: with `Cc1ccc([N+](=O)[O-])c(NC(=O)NC[C@H]2CC[C@@H](Nc3nc(N(C)C)c4ccccc4n3)CC2)c1C` [compound 473] the figure was 1 (Class 1: The value of percent of control at 10^−7 M was less than 40% or the value of IC50 was less than 50 nM.). The same measure, in the same setting: in the case of `COc1ccc(NC(=S)NC[C@H]2CC[C@@H](Nc3nc(N(C)C)c4ccccc4n3)CC2)cc1` [compound 607] it was 3 (Class 3: The value of percent of control at 10^−7 M was more than 60% or the value of IC50 was more than 200 nM.); in that of `CN(C)c1nc(N[C@H]2CC[C@@H](CNC(=S)Nc3ccc(Br)cc3)CC2)nc2ccccc12` [compound 582], 3 (Class 3: The value of percent of control at 10^−7 M was more than 60% or the value of IC50 was more than 200 nM.). As to `CN(C)c1nc(N[C@H]2CC[C@@H](NC(=S)Nc3cccc(F)c3)CC2)nc2ccccc12` [compound 226], the class is 3 (Class 3: The value of percent of control at 10^−7 M was more than 60% or the value of IC50 was more than 200 nM.). Still for that read-out and setting: in the case of `CN(C)c1nc(N[C@H]2CC[C@@H](CNC(=S)Nc3ccccc3Cl)CC2)nc2ccccc12` [compound 626] it was 3 (Class 3: The value of percent of control at 10^−7 M was more than 60% or the value of IC50 was more than 200 nM.); in that of `CN(C)c1nc(N[C@H]2CC[C@@H](CNC(=S)Nc3c(Cl)c(Cl)cc(Cl)c3Cl)CC2)nc2ccccc12` [compound 715], 1 (Class 1: The value of percent of control at 10^−7 M was less than 40% or the value of IC50 was less than 50 nM.); in that of `CN(C)c1nc(N[C@H]2CC[C@@H](CNC(=O)Nc3ccc(F)c([N+](=O)[O-])c3)CC2)nc2ccccc12` [compound 436], 3 (Class 3: The value of percent of control at 10^−7 M was more than 60% or the value of IC50 was more than 200 nM.). On the same count and under the same terms, in the case of `CN(C)c1nc(N[C@H]2CC[C@@H](CNC(=O)NCc3cccc(F)c3)CC2)nc2ccccc12` [compound 533, N-[(cis-4-{[4-(dimethylamino)quinazolin-2-yl]amino}cyclohexyl)methyl]-N′-(3-fluorobenzyl)urea] it was 2 (Class 2: The value of percent of control at 10^−7 M was from 40% to 60% or the value of IC50 was from 50 nM to 200 nM.); in that of `CN(C)c1nc(N[C@H]2CC[C@@H](NC(=S)Nc3ccc(C(C)(C)C)cc3)CC2)nc2ccccc12` [compound 375], 3 (Class 3: The value of percent of control at 10^−7 M was more than 60% or the value of IC50 was more than 200 nM.). Take `COc1ccc(OC)c(NC(=S)N[C@H]2CC[C@@H](Nc3nc(N(C)C)c4ccccc4n3)CC2)c1` [compound 212]: the class was 2 (Class 2: The value of percent of control at 10^−7 M was from 40% to 60% or the value of IC50 was from 50 nM to 200 nM.). The same measure, in the same setting: with `COC(=O)c1ccc(NC(=O)NC[C@H]2CC[C@@H](Nc3nc(N(C)C)c4ccccc4n3)CC2)cc1` [compound 574] the figure was 3 (Class 3: The value of percent of control at 10^−7 M was more than 60% or the value of IC50 was more than 200 nM.).

The same test, now with this note: class by percent of control at 10^-7 M or by IC50; read-out: class.
Take `COc1ccccc1OC(=O)NC[C@H]1CC[C@@H](Nc2nc(N(C)C)c3ccccc3n2)CC1` [compound 871]: the IC50 was over 200 nM.

For `CC(C)[C@@H]1CC[C@@H](C)C[C@H]1OC(=O)N[C@H]1CC[C@@H](Nc2nc(N(C)C)c3ccccc3n2)CC1` [compound 860], the IC50 is over 200 nM. The same measure, in the same setting: in the case of `Cc1ccc(C)c(NC(=O)N[C@H]2CC[C@@H](Nc3nc(N(C)C)c4ccccc4n3)CC2)c1` [compound 82] it was over 200 nM. Same read-out and setting: with `CCOc1ccc(NC(=S)N[C@H]2CC[C@@H](Nc3nc(N(C)C)c4ccccc4n3)CC2)cc1` [compound 172] the figure was over 200 nM. `CCCc1ccccc1NC(=O)N[C@H]1CC[C@@H](Nc2nc(N(C)C)c3ccccc3n2)CC1` [compound 114, N-(cis-4-{[4-(dimethylamino)quinazolin-2-yl]amino}cyclohexyl)-N′-(2-propylphenyl)urea]: the IC50 was under 50 nM. On to `CN(C)c1nc(N[C@H]2CC[C@@H](NC(=O)Nc3cccc(C#N)c3)CC2)nc2ccccc12` [compound 17], for which the IC50 was over 200 nM.

Regarding `CN(C)c1nc(N[C@H]2CC[C@@H](NC(=O)Nc3ccc(Cl)cc3Cl)CC2)nc2ccccc12` [compound 22, N-(2,4-dichlorophenyl)-N′-(cis-4-{[4-(dimethylamino)quinazolin-2-yl]amino}cyclohexyl)urea], the IC50 fell in the range of 50 to 200 nM. Same read-out and setting: in the case of `CCOc1ccccc1NC(=O)N[C@H]1CC[C@@H](Nc2nc(N(C)C)c3ccccc3n2)CC1` [compound 93, N-(cis-4-{[4-(dimethylamino)quinazolin-2-yl]amino}cyclohexyl)-N′-(2-ethoxyphenyl)urea] it was under 50 nM. Still for that read-out and setting: in the case of `CN(C)c1nc(N[C@H]2CC[C@@H](NC(=O)Nc3cccc(Cl)c3)CC2)nc2ccccc12` [compound 14] it was over 200 nM.

For the compound `CN(C)c1nc(N[C@H]2CC[C@@H](NC(=O)OCc3ccccc3)CC2)nc2ccccc12` [compound 858], the IC50 was 50 to 200 nM. On the same count and under the same terms, in the case of `CCCCc1ccc(NC(=O)N[C@H]2CC[C@@H](Nc3nc(N(C)C)c4ccccc4n3)CC2)cc1` [compound 832] it was over 200 nM.

Staying with this test, now noted: class by percent of control at 10^−7 M or by IC50; read-out: class.
For the compound `CN(C)c1nc(N[C@H]2CC[C@@H](NC(=O)c3cccc(NC(=O)C(C)(C)C)c3)CC2)nc2ccccc12` [Example 1202, N-(cis-4-{(4-(dimethylamino)quinazolin-2-yl]amino}cyclohexyl)-3-[(2,2-dimethylpropanoyl)amino]benzamide], the IC50 fell in the range of 50 to 200 nM. Same read-out and setting: with `CN(C)c1nc(N[C@H]2CC[C@@H](NC(=O)c3ccnc(Oc4cccc(Cl)c4)c3)CC2)nc2ccccc12` [Example 1073, 2-(3-chlorophenoxy)-N-(cis-4-{[4-(dimethylamino)quinazolin-2-yl]amino}cyclohexyl)isonicotinamide] the figure was 50 to 200 nM; with `COc1cc(Oc2ncccc2C(=O)N[C@H]2CC[C@@H](Nc3nc(N(C)C)c4ccccc4n3)CC2)cc(OC)c1OC` [Example 1041, N-(cis-4-{[4-(dimethylamino)quinazolin-2-yl]amino}cyclohexyl)-2-(3,4,5-trimethoxyphenoxy)nicotinamide], under 50 nM. The same measure, in the same setting: in the case of `CN(C)c1nc(N[C@H]2CC[C@@H](NCc3ccc(Br)cc3OC(F)(F)F)C2)nc2ccccc12` [Example 1048, N2-((1S,3R)-3-{[4-bromo-2-(trifluoromethoxy)benzyl]-amino}cyclopentyl)-N4,N4-dimethylquinazoline-2,4-diamine] it was over 200 nM; in that of `CN(C)c1nc(N[C@H]2CC[C@@H](NC(=O)CNc3ccc(Cl)cc3)CC2)nc2ccccc12` [Example 1089, N2-(4-chlorophenyl)-N-(cis-4-{[4-(dimethylamino)quinazolin-2-yl]amino}cyclohexyl)glycinamide], under 50 nM.

Consider `CN(C)c1nc(N[C@H]2CC[C@@H](NC(=O)c3ccccc3)CC2)nc2cc(F)c(F)cc12` [Example 1205, N-(cis-4-{[4-(dimethylamino)-6,7-difluoroquinazolin-2-yl]amino}cyclohexyl)benzamide], for which the IC50 is under 50 nM. Same read-out and setting: in the case of `CN(C)c1nc(N[C@H]2CC[C@@H](NC(=O)c3ccc(Oc4ccc(F)c(Cl)c4)nc3)CC2)nc2ccccc12` [Example 1070, 6-(3-chloro-4-fluorophenoxy)-N-(cis-4-{[4-(dimethylamino)quinazolin-2-yl]amino}cyclohexyl)nicotinamide] it was 50 to 200 nM; in that of `CN(C)c1nc(N[C@H]2CC[C@@H](C(=O)NCc3ccc(F)cc3F)CC2)nc2cc(F)c(F)cc12` [Example 997, cis-N-(2,4-difluorobenzyl)-4-{[4-(dimethylamino)-6,7-difluoroquinazolin-2-yl]amino}cyclohexanecarboxamide], over 200 nM. Still for that read-out and setting: with `CN(C)c1nc(N[C@H]2CC[C@@H](CNC(=O)[C@@H](O)c3cccc(Cl)c3)CC2)nc2ccccc12` [Example 1100, (2S)-2-(3-chlorophenyl)-N-[(cis-4-{[4-(dimethylamino)-quinazolin-2-yl]amino}cyclohexyl)methyl]-2-hydroxyacetamide] the figure was 50 to 200 nM; with `CN(C)c1nc(N[C@H]2CC[C@@H](NC(=O)c3ccc(Oc4ccc(Cl)c(F)c4)nc3)CC2)nc2ccccc12` [Example 1069, 6-(4-chloro-3-fluorophenoxy)-N-(cis-4-{[4-(dimethylamino)quinazolin-2-yl]amino}cyclohexyl)nicotinamide], under 50 nM.
